# Biological target: T1, trypsin (Bos taurus, UniProt P00760)
# T1 sequence (P00760 24-246): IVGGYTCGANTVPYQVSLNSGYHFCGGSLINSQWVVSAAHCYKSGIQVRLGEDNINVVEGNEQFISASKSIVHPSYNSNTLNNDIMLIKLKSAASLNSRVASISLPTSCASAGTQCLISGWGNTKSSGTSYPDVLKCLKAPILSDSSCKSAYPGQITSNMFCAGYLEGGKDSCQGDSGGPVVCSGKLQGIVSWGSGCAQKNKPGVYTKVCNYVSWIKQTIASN
# Assay: trypsin enzyme inhibition activity
# Type: biochemical
# Conditions: enzyme inhibition activity of the resynthesized screened compound, FIGS. 4-5
# Experimental: According to the structural formula, the compound is tested at the end of synthesis.
compound,measurement,value
C[C@H](NC(=O)[C@H](CNC(=O)Cc1ccc2ccccc2c1)NS(=O)(=O)c1ccccc1)C(=O)NCc1ccc(C(=N)N)cc1,IC50,8.1 ± 2.1 nM
